Results: patent US6355619B1, “Peptide tumor cell growth inhibitors” (Board of Regents, The University of Texas System, priority 1996, dated 2002)
Read-outs that look alike come from different tables or passages of the source.

What was measured:
[1] = target: T1, MIP-1α binding to human neutrophils (Homo sapiens, UniProt P32246); assay: Binding of radiolabeled MIP-1α to human neutrophils
T1 construct: endogenous in cells; host or cells: human neutrophils

[2] = target: T2, GRO binding to human neutrophils (Homo sapiens, UniProt P25025); assay: Binding of radioiodinated GRO/MGSA to human neutrophils; details: 1 nM GRO
T2 construct: endogenous in cells; host or cells: human neutrophils
T2 sequence (P25025 whole entry): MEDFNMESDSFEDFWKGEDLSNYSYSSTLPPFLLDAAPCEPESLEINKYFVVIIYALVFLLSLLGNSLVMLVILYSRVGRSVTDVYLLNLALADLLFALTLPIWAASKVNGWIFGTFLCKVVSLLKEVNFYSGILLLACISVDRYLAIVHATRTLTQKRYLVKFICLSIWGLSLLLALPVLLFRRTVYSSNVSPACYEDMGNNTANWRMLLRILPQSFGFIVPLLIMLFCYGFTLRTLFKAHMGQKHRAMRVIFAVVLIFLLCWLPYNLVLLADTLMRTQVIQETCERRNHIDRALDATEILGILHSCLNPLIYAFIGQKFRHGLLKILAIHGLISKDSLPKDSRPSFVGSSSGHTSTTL
Method: FIG. 10. Ac-RRWWCX (SEQ ID NO:23) Inhibits Binding of GRO and MIP2β to human neutrophils. Radioiodinated MIP2β and GRO/MGSA were mixed with various concentration of Ac-RRWWCR-NH2 and incubated at room temperature for 15 min. Neutrophil suspension (1×10^6 cells in 160 μl PBS containing 0.1% BSA) was added to 40 μl of the mixture and incubated for 90 min on ice. The radioactivity bound to the cells was separated from free radioactivity by centrifugation through an oil layer. The % binding inhibition was calculated as follows: [formula]
MIP2β and GRO/MGSA were radioiodinated using Bolten Hunter reagent. The radioiodinated components were mixed with various concentration of the Ac-RRWWCX-NH2 (SEQ ID NO:23) peptide and incubated at room temperature for 15 min. Neutrophil suspension (1×10^6 cells in 160 μl PBS containing 0.1% BSA) was added to 40 μl of the mixture and incubated for 90 min on ice. The radioactivity bound to the cells was separated from free radioactivity by centrifugation through an oil layer. The bound radioactivity is an indication of bound CXC intercrine peptide. The % binding inhibition in the presence of Ac-RRWWCX-NH2 (SEQ ID NO:23) was calculated as follows: [formula]
where B is bound radioactivity in the presence of the peptide, T is bound radioactivity in the absence of the peptide, and NSP is bound radioactivity in the presence of excess nonlabeled ligand.

[3] = tested on: fMLP-induced neutrophil chemotaxis; assay: Neutrophil chemotaxis stimulated by fMLP; assay type: cell-based, human; details: 10 nM fMLP
Method: FIG. 7. The Effect of Ac-RRWWCR-NH2 (SEQ ID NO:1) on Neutrophil Chemotaxis. Chemotaxis was performed in the presence of increasing concentration of Ac-RRWWCR-NH2 (SEQ ID NO:1) in both upper and lower chamber. Stimulants added to lower chamber were 10 nM IL-8 (●), 10 nM fMLP (▪), or media alone (◯) as control. Analysis of variance was used for multiple comparison.
Chemotaxis was performed using the leading front method as described by Zigmond and Hirsh (1973). IL-8 or controls were placed in the lower well of a Boyden chamber. A five micron pore size, 100 μm. thick cellulose nitrate filter (Sartorius Filter,. Inc., San Francisco, Calif.) was placed on the surface and the chamber was then assembled. A 200 μl aliquot of the neutrophil preparation (1×10^6 cells/ml) in RPMI-1640 media containing 1% BSA was added to the top of the filter and incubated at 37° C. for 30 min. The filter was then fixed, stained and mounted on a glass microscope slide. The leading front was determined by the position of the leading two cells. The distance that the leading two cells had moved through the filter was measured for six fields on each filter. The measurements were made with four filters for each set of conditions.

RPMI-7951 melanoma cells = assay: Cell growth assay, RPMI-7951; assay type: cell-based
Method: (§1) FIG. 15B. The effect of Antileukinate on the growth of melanoma cells. Melanoma cell lines and a control liver cancer cell line (2×10^4 cells/well) in 500 μ were cultured in a 24 well tissue culture plate in the presence of various concentrations of Antileukinate for 3 d. The culture media were changed to fresh media containing the same concentration of Antileukinate every 24 hr during the incubation period. After incubation, the cells were collected and the cell number was counted using a hemocytometer. RPMI-7951 cell line. Analysis of variance was used for multiple comparison.
(§2) The cell lines (2×10^4 cells/well) in 500 μl cell culture medium were grown in 24 well tissue culture plates. After the cells adhered to the plate, the supernatants were aspirated and 500 μl of media containing various concentrations of Antileukinate were added to the wells. The cells were cultured for period indicated in the text. The culture media were changed to fresh media every 24 hr. After incubation, the cells were detached with trypsin-EDTA solution (Life Technologies Inc., Gaithersburg, Md., containing 0.05% of trypsin and 0.53 mM of EDTA in Hanks Balanced Salt Solution without Ca^2+ and Mg^2+) and the cell number was counted using a hemocytometer.

[4] = tested on: Hep G2 liver cancer cells; assay: Cell growth assay, Hep G2; assay type: cell-based; details: 72 hr
Method: as §1, with “15C.” for “15B.”, “μl” for “μ”, “Liver cancer” for “RPMI-7951”, “line, Hep G2.” for “line.”
as §2

[5] = tested on: DU145 (adenocarcinoma of prostate); assay: Growth of DU145, MTT assay; assay type: cell-based; details: DU145, serum-starved, 24 hours
Method: FIG. 18. The effect of Antileukinate on growth of DU145 (adenocarcinoma of prostate) cell line. Serum-starved DU145 were incubated with the indicated concentrations of Antileukinate for 24 hours. MTT assay was then performed. Cell umber was decreased in a dose-dependent manner and there are significant differences from controls at concentrations greater than, or equal to 100 μM of Antileukinate (p<0.05).

[6] = tested on: SP2/o mouse myeloma cell lines; assay: Growth of SP2/o myeloma cells stimulated by murine interleukin-6; assay type: cell-based
A375SM melanoma cells = assay: Tumor cell growth, A375SM; assay type: cell-based
C8161 melanoma cells = assay: Tumor cell growth, C8161; assay type: cell-based
[7] = tested on: lung adenocarcinoma cell line NCI-H441; assay: Tumor cell growth, NCI-H441; assay type: cell-based
[8] = tested on: adenocarcinoma from colon Caco-2; assay: Tumor cell growth, Caco-2; assay type: cell-based
Hep G2 = details: 16 hr
Method: The cell lines (4×10^5 cells/well) in RPMI-1640 medium containing 10% fetal bovine serum were incubated with 10 μCi of Na2^51CrO4 (DuPont NEN Co.) for 60 min at 37° C. in a 24 well tissue culture plate. The cells were washed 3 times and then incubated in cell culture medium for 30 min at 37° C. to allow spontaneous lysis of marginally viable cells. […] The cells were cultured for 16 hr at 37° C. and then the radioactivity in the supernatants was counted in a gamma radiation spectrometer. Quadriplicate wells received cell culture medium alone or 2% SDS to determine spontaneous and maximum release, respectively. The percentage lysis was calculated by using the following formula: [formula]

T1 sequence (P32246 whole entry): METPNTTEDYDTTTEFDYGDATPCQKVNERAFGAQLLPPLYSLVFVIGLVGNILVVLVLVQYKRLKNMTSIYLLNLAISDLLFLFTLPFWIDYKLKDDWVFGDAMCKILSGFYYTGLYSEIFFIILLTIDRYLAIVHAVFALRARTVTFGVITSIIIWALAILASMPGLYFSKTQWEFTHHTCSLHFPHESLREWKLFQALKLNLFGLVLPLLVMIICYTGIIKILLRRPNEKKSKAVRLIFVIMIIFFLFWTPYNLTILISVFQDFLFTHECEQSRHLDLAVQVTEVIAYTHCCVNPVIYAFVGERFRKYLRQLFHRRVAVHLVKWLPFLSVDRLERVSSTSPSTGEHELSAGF

Substance: RRWWCR [Ac-RRWWCR-NH2]
- effect on binding of radiolabeled MIP-1α [1]: did not affect the binding
- effect on binding of GRO to neutrophils [2]: effectively suppress the binding
- effect on chemotaxis induced by fMLP [3]: had no effect on chemotaxis
- cell growth at 100 μM peptide (RPMI-7951 melanoma cells; RPMI-7951, 100 μM): suppressed the cell growth almost completely
- EC50 (RPMI-7951 melanoma cells; RPMI-7951, 72 hr, medium changed every 24 hr, read-out: ED50, cell growth inhibition): 31 µM
- effect on growth of Hep G2 liver cancer cells [4]: did not affect the growth
- concentrations with significant difference in cell number from controls (p<0.05) [5]: ≥ 100 µM
- effect on growth of SP2/o mouse myeloma cell lines [6]: did not affect the growth
- effect on cell growth (A375SM melanoma cells): suppresses the growth
- effect on cell growth (C8161 melanoma cells): suppresses the growth
- effect on cell growth [7]: inhibits growth
- effect on cell growth [8]: inhibits growth
- % cell lysis (Hep G2; Hep G2, 1 μM peptide): −2.1 ± 7.5%
- % cell lysis (Hep G2; Hep G2, 5 μM peptide): −0.8 ± 8.3%
- % cell lysis (Hep G2; Hep G2, 20 μM peptide): 5.8 ± 8.3%
- % cell lysis (Hep G2; Hep G2, 100 μM peptide): 0.9 ± 2.9%
